Measured values taken from patent US6924278B2, “Aroyl-piperazine derivatives, their preparation and their use as tachykinin antagonists” (Fujisawa Pharmaceutical Co., Ltd., priority 1997, dated 2005).

Experiments:
h-NK1 receptors = molecular target: T1, h-NK1 receptors (Homo sapiens, UniProt P25103); assay: Evaluation of NK1 antagonist transport efficiency to the central nervous system using a h-NK1 receptor binding assay (brain extract after i.v. dosing of rats); conditions: 5 min; compound extracted from brain of male SD rats 5 min after i.v. injection at the dose of 1 mg/kg; CHO cell membranes expressing h-NK1; read-out: inhibition rate of 125I-BH-Substance P binding to h-NK1 receptors
T1 construct: expressed in transfected cells; host or cells: CHO cells (permanent expression), crude cell membranes
Experimental: A. Evaluation of NK1 Antagonist Transport Efficiency to the Cental Nervous System using a h-NK1 Receptor Binding Assay
(1) Administration of Test Compound and Extraction of the Compound from Brain
Male SD rats were given an i.v. injection of a solution containing a test compound (1 mg/kg). 5 Min later the animals were anesthetized by ether, bled and perfused through the aorta ascendens with 20 ml of saline. The brain was rapidly removed, weighed and homogenized in 4 vol. ice-cold distilled water by using Polytoron (KINEMATICA). To extract the test compound, 500 μl of the homogenate, 100 μl of methanol, 500 μl of 0.1 N NaOH and 4 ml of ethyl acetate were mixed by shaking for 10 min at room temperature. The organic phase (2.5 ml) was recovered by centrifugation at 3,000 rpm for 10 min, dried and dissolved in dimethyl sulfoxide.
(2) h-NK1 Receptor Binding Assay
(a) Crude CHO Cell Membrane Preparation
CHO cells permanently expressing h-NK1 receptors were harvested and homogenized with a Dounce homogenizer at 4° C. in a buffer (0.25 M sucrose, 25 mM Tris-HCl (pH 7.4), 10 mM MgCl2, 1 mM EDTA, 5 μg/ml p-APMSF). The homogenate was centrifuged (500×g, 10 min), and the pellet was resuspended in the same buffer, homogenized, and centrifuged. The two supernatants were combined and centrifuged (100,000×g, 1 hour). The crude cell membranes thus isolated were resuspended in a buffer (25 mM Tris-HCl (pH 7.4), 10 mM MgCl2, 1 mM. EDTA, 5 μg/ml p-APMSF) and stored at −80° C. until use.
(b) ^125I-BH-Substance P Binding to the Prepared Membrane
Cell membranes (6 μg/ml) were incubated with ^125I-BH-Substance P (0.1 nM) with or without the extracted compounds in 0.25 ml of a medium (50 mM Tris-HCl (pH 7.4), 5 mM MnCl2, 20 μg/ml chymostatin, 40 μg/ml bacitracin, 4 μg/ml leupeptin, 5 μg/ml p-APMSF, 200 μg/ml BSA) at 22° C. for 90 min. At the end of the incubation period, the contents were quickly filtered through a Blue Mat 11740 filter (pretreated with 0.1% polyethylenimine for 3 hours prior to use) by using SKATRON Cell Harvester. The filter was then washed with a washing buffer (50 mM Tris-HCl (pH 7.4), 5 mM MnCl2). The radioactivity was counted by using an auto gamma counter (Packard RIASTAR 5420A). All data presented are specific binding defined as that displaceable by 3 μM unlabeled Substance P.

T1 sequence (P25103 whole entry): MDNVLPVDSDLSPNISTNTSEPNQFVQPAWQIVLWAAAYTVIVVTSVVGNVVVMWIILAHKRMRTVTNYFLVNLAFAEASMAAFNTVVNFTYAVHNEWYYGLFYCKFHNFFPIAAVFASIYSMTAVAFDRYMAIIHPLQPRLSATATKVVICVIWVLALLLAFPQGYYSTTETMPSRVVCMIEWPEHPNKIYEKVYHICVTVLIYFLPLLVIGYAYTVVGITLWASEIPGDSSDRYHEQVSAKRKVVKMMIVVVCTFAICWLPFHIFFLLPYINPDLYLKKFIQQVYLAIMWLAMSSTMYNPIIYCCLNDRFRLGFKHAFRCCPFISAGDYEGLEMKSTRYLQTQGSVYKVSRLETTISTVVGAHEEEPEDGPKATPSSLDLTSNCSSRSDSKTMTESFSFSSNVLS

SMILES	inhibition at 1 mg/kg (h-NK1 receptors) [%]	melting point [°C]
COC[C@@H]1CN(CC#CCN2CCN(C(=O)c3cc(C(F)(F)F)cc(C(F)(F)F)c3)[C@H](Cc3ccc(C)c(C)c3)C2)CCO1.Cl.Cl [71-(5), (2R)-1-[3,5-Bis(trifluoromethyl)benzoyl]-2-(3,4-dimethylbenzyl)-4-[4-((2S)-2-methoxymethylmorpholino)-2-butynyl]piperazine dihydrochloride]	> 80	85 to 95
COC[C@H]1CN(CC#CCN2CCN(C(=O)c3cc(C(F)(F)F)cc(C(F)(F)F)c3)[C@H](Cc3ccc(C)c(C)c3)C2)CCO1.Cl.Cl [71-(6), (2R)-1-[3,5-Bis(trifluoromethyl)benzoyl]-2-(3,4-dimethylbenzyl)-4-[4-((2R)-2-methoxymethylmorpholino)-2-butynyl]piperazine dihydrochloride]	> 80	80 to 90
COC[C@H]1COCCN1C/C=C/CN1CCN(C(=O)c2cc(C(F)(F)F)cc(C(F)(F)F)c2)[C@H](Cc2ccc(C)c(C)c2)C1.Cl.Cl [73-(3), (2R)-1-[3,5-Bis(trifluoromethyl)benzoyl]-2-(3,4-dimethylbenzyl)-4-[(E)-4-((3S)-3-methoxymethylmorpholino)-2-butenyl]piperazine dihydrochloride]	> 80	130 to 140
Cc1ccc(C[C@@H]2CN(CCCN3CCOCC3(C)C)CCN2C(=O)c2cc(C(F)(F)F)cc(C(F)(F)F)c2)cc1C.Cl.Cl [78-(4), (2R)-1-[3,5-Bis(trifluoromethyl)benzoyl]-2-(3,4-dimethylbenzyl)-4-[3-(3,3-dimethylmorpholino)propyl]piperazine dihydrochloride]	> 80	197
CC1(C)COCCN1CCN1CCN(C(=O)c2cc(C(F)(F)F)cc(C(F)(F)F)c2)[C@H](Cc2c[nH]c3ccccc23)C1.Cl.Cl [79-(1), (2R)-1-[3,5-Bis(trifluoromethyl)benzoyl]-4-[2-(3,3-dimethylmorpholino)ethyl]-2-[(1H-indol-3-yl)methyl]piperazine dihydrochloride]	> 80	247 to 258
Cc1ccc(C[C@@H]2CN(CCN3CCOCC3(C)C)CCN2C(=O)c2cc(C(F)(F)F)cc(C(F)(F)F)c2)cc1C.Cl.Cl [79-(2), (2R)-1-[3,5-Bis(trifluoromethyl)benzoyl]-2-(3,4-dimethylbenzyl)-4-[2-(3,3-dimethylmorpholino)ethyl]piperazine dihydrochloride]	> 80	190 to 210
Cc1ccc(C[C@@H]2CN(CCN3CCOC[C@@H]3CO)CCN2C(=O)c2cc(C(F)(F)F)cc(C(F)(F)F)c2)cc1C.Cl.Cl [80-(2), (2R)-1-[3,5-Bis(trifluoromethyl)benzoyl]-2-(3,4-dimethylbenzyl)-4-[2-((3S)-3-hydroxymethylmorpholino)ethyl]piperazine dihydrochloride]	> 80	150 to 160
COC[C@H]1COCCN1CCN1CCN(C(=O)c2cc(C(F)(F)F)cc(C(F)(F)F)c2)[C@H](Cc2ccc(C)c(C)c2)C1.Cl.Cl [80-(4), (2R)-1-[3,5-Bis(trifluoromethyl)benzoyl]-2-(3,4-dimethylbenzyl)-4-[2-((3S)-3-methoxymethylmorpholino)ethyl]piperazine dihydrochloride]	> 80	90 to 100
COC[C@H]1COCCN1CCCN1CCN(C(=O)c2cc(C(F)(F)F)cc(C(F)(F)F)c2)[C@H](Cc2ccc(C)c(C)c2)C1.Cl.Cl [80-(6), (2R)-1-[3,5-Bis(trifluoromethyl)benzoyl]-2-(3,4-dimethylbenzyl)-4-[3-((3S)-3-methoxymethylmorpholino)propyl]piperazine dihydrochloride]	> 80	55 to 60
COCC1CN(CCCN2CCN(C(=O)c3cc(C(F)(F)F)cc(C(F)(F)F)c3)[C@H](Cc3ccc(C)c(C)c3)C2)CCO1.Cl (stereo partly drawn) [80-(7), (2R)-1-[3,5-Bis(trifluoromethyl)benzoyl]-2-(3,4-dimethylbenzyl)-4-[3-(2-methoxymethylmorpholino)propyl]piperazine hydrochloride]	> 80	145 to 155
Cc1ccc(C[C@@H]2CN(CCN3CCOC[C@@H]3CF)CCN2C(=O)c2cc(C(F)(F)F)cc(C(F)(F)F)c2)cc1C.Cl.Cl [81-(1), (2R)-1-[3,5-Bis(trifluoromethyl)benzoyl]-2-(3,4-dimethylbenzyl)-4-[2-((3R)-3-fluoromethylmorpholino)ethyl]piperazine dihydrochloride]	> 80	145 to 155
COCC1(C)COCCN1CCN1CCN(C(=O)c2cc(C(F)(F)F)cc(C(F)(F)F)c2)[C@H](Cc2ccc(C)c(C)c2)C1.Cl.Cl (stereo partly drawn) [81-(2), (2R)-1-[3,5-Bis(trifluoromethyl)benzoyl]-2-(3,4-dimethylbenzyl)-4-[2-(3-methoxymethyl-3-methylmorpholino)ethyl]piperazine dihydrochloride]	> 80	60 to 70
CCOC[C@H]1COCCN1CCN1CCN(C(=O)c2cc(C(F)(F)F)cc(C(F)(F)F)c2)[C@H](Cc2ccc(C)c(C)c2)C1.Cl.Cl [81-(3), (2R)-1-[3,5-Bis(trifluoromethyl)benzoyl]-2-(3,4-dimethylbenzyl)-4-[2-((3S)-3-ethoxymethylmorpholino)ethyl]piperazine dihydrochloride]	> 80	60 to 65
COC[C@@H]1COCCN1CCN1CCN(C(=O)c2cc(C(F)(F)F)cc(C(F)(F)F)c2)[C@H](Cc2ccc(C)c(C)c2)C1.Cl.Cl [81-(4), (2R)-1-[3,5-Bis(trifluoromethyl)benzoyl]-2-(3,4-dimethylbenzyl)-4-[2-((3R)-3-methoxymethylmorpholino)ethyl]piperazine dihydrochloride]	> 80	90 to 100
COC[C@H]1CN(CCN2CCN(C(=O)c3cc(C(F)(F)F)cc(C(F)(F)F)c3)[C@H](Cc3ccc(C)c(C)c3)C2)CCO1.Cl.Cl [81-(5), (2R)-1-[3,5-Bis(trifluoromethyl)benzoyl]-2-(3,4-dimethylbenzyl)-4-[2-((2R)-2-methoxymethylmorpholino)ethyl]piperazine dihydrochloride]	> 80	160 to 170
CC1(C)COCCN1CC#CCN1CCN(C(=O)c2cc(C(F)(F)F)cc(C(F)(F)F)c2)C(Cc2cc3ccccc3[nH]2)C1.Cl.Cl (centres unmarked) [89-(1), 1-[3,5-Bis(trifluoromethyl)benzoyl]-2-[(1H-indol-2-yl)methyl]-4-[4-(3,3-dimethylmorpholino)-2-butynyl]piperazine dihydrochloride]	> 80	185
CN(C)c1cc(C(=O)N2CCN(CC#CCN3CCOCC3(C)C)C[C@H]2Cc2c[nH]c3ccccc23)cc(C(F)(F)F)c1.Cl.Cl [90-(2), (2R)-1-[3-(Dimethylamino)-5-(trifluoromethyl)benzoyl]-4-[4-(3,3-dimethylmorpholino)-2-butynyl]-2-[(1H-indol-3-yl)methyl]piperazine dihydrochloride]	> 80	210 to 225
CC1(C)COCCN1CC#CCN1CCN(C(=O)c2cc([N+](=O)[O-])cc(C(F)(F)F)c2)[C@H](Cc2c[nH]c3ccccc23)C1.Cl.Cl [90-(3), (2R)-4-[4-(3,3-Dimethylmorpholino)-2-butynyl]-2-[(1H-indol-3-yl)methyl]-1-[3-nitro-5-(trifluoromethyl)benzoyl]piperazine dihydrochloride]	> 80	198 to 220
CNc1cc(C(=O)N2CCN(CC#CCN3CCOCC3(C)C)C[C@H]2Cc2ccc(C)c(C)c2)cc(C(F)(F)F)c1.Cl.Cl [90-(4), (2R)-2-(3,4-Dimethylbenzyl)-4-[4-(3,3-dimethylmorpholino)-2-butynyl]-1-[3-(methylamino)-5-(trifluoromethyl)benzoyl]piperazine dihydrochloride]	> 80	195 to 205
